Assay type in all cases: in vivo
Series [1] deals with Tetranychus urticae (spider mites - adult). In words: insecticidal mortality test, contact, French bean leaf. The following applies: for mortality at 100 ppm: Tetranychus urticae, 72 h, read-out: grading of mortality, Tua, 100 ppm, 3 days. How it is done: (§1) The activity of the Product was determined using a variety of insect pests. The Product was used in the form of liquid preparations containing 500, 250 or 100 parts per million (ppm) by weight of the Product. The preparations were made by dissolving the Product in acetone and diluting the solutions with water containing 0.01% by weight of a wetting agent sold under the trade name "LlSSAPOL" NX until the liquid preparations contained the required concentration of the Product. "Lissapol" is a Registered Trade Mark.
(§2) The test procedure adopted with regard to each pest was basically the same and comprised supporting a number of the pests on a medium which was usually a host plant or a foodstuff on which the pests feed, and treating either or both the pests and the medium with the preparations. The mortality of the pests was then assessed at periods usually varying from one to three days after the treatment.
(§3) The results of the tests are given in Table III for each of the Products, at the rate in parts per million given in the second column as a grading of mortality designated as A, B or C wherein A indicates 80-100% mortality, B indicates 50-79% mortality and C indicates less than 50% mortality.
(§4) In Table 111 the pest organism used is designated by a letter code and the pests species, the support medium or food, and the type and duration of test is given in Table II.

For series [2], the system named is Nephotettix cincticeps (green leaf hopper - nymphs). In words: insecticidal mortality test, contact, rice plant. The following applies: 72 h, read-out: grading of mortality, NC. On the procedure: as §1, §2, §3, §4
Series [3] has as its system Heliothis virescens (tobacco budworm - larvae). As to the kind of experiment: insecticidal mortality test, residual, cotton leaf. The following applies: 72 h, read-out: grading of mortality, HV. How it is done: as §1, §2, §3, §4
Series [4] concerns Spodoptera exigua (lesser army worm - larvae). As to the kind of experiment: insecticidal mortality test, residual, cotton leaf. The following applies: 72 h, read-out: grading of mortality, SP. How it is done: as §1, §2, §3, §4
Series [5] relates to Diabrotica balteata (rootworm larvae). In words: insecticidal mortality test, residual, filter paper/maize seed. Particulars: 72 h, read-out: grading of mortality, DB. On the procedure: as §1, §2, §3, §4
Series [6] relates to Musca domestica (houseflies - adults). In words: insecticidal mortality test, contact, cotton wool/sugar. Particulars: 24 h, read-out: grading of mortality, MD. On the procedure:
as §1, §2, §3, §4

In the next series the test system is Myzus persicae (aphids). As to the kind of experiment: insecticidal mortality test, contact, Chinese Cabbage leaf. Particulars: 72 h, read-out: grading of mortality, MP. How it is done:
as §1, §2, §3, §4

The test system of series [7] is Blattella germanica (cockroach nymphs). As to the kind of experiment: insecticidal mortality test, residual, plastic pot. Particulars: 72 h, read-out: grading of mortality, BG. How it is done: as §1, §2, §3, §4
Setting [8] is: 100 ppm, contact, rice plant, 3 days.
Where [9] appears, read: 100 ppm, residual, cotton leaf, 3 days.

Molecules are shown by their SMILES. Like-named read-outs stand apart in the source and are kept apart here.

A word on the mortality: it is the share of the test organisms that died.

Take `CC1(C)C(C=C(Cl)C(F)(F)F)C1C(=O)OCc1c(F)c(F)c(COC=O)c(F)c1F` (racemic) [Product VIII, 4-(Formyloxymethyl)-2,3,5,6-tetrafluoromethyl (1RS, cis)-3-(Z-2-chloro-3,3,3-trifluoroprop-1-en-1-yl)-2,2-dimethylcyclopropanecarboxylate]: in series [1] (100 ppm, 3 days, listed as VIII, 4320 min), the “grading of mortality, Tua” value is reported as “A (A indicates 80-100% mortality)”. Besides, the mortality at 100 ppm in series [2] (setting [8]), in series [3] (setting [9]), in series [4], in series [5] and in series [6] was 80 to 100% in each case.

`CC1(C)[C@H](C(=O)OCc2c(F)c(F)c(CBr)c(F)c2F)[C@@H]1/C=C(\Cl)C(F)(F)F` (relative stereo) [Product I, 4-(Bromomethyl)-2,3,5,6-tetrafluorobenzyl (1RS,cis)-3-(Z-2-chloro-3,3,3-trifluoroprop-1-en-1-yl)-2,2-dimethyl-cyclopropanecarboxylate]: the mortality at 100 ppm in series [1] is under 50%; in series [3] it was 50 to 79%; in series [5], 80 to 100%; in series [6], under 50%.

On to `CC1(C)[C@H](C(=O)OCc2c(F)c(F)c(COS(C)(=O)=O)c(F)c2F)[C@@H]1/C=C(\Cl)C(F)(F)F` (relative stereo) [Product IV, 4-(methanesulphonyloxymethyl)-2,3,5,6-tetrafluorobenzyl (1RS,cis)-3-(Z-2-chloro-3,3,3-trifluoroprop-1-en-1-yl)-2,2-dimethylcyclopropanecarboxylate], for which the mortality at 100 ppm in series [1] is 80 to 100%; with Myzus persicae (aphids) it was 80 to 100%; in series [2], 80 to 100%; in series [3], 80 to 100%; in series [4], 80 to 100%; in series [5], under 50%. Besides, the mortality at 100 ppm in series [7] is 80 to 100%; in series [6], under 50%.

As for `CC1(C)[C@H](C(=O)OCc2c(F)c(F)c(COC(=O)C(F)(F)F)c(F)c2F)[C@@H]1/C=C(\Cl)C(F)(F)F` (relative stereo) [Product V, 4-(trifluoroacetoxymethyl)-2,3,5,6-tetrafluorobenzyl (1RS,cis)-3-(Z-2-chloro-3,3,3-trifluoroprop-1-en-1-yl)-2,2-dimethylcyclopropanecarboxylate], the mortality at 100 ppm (in series [1]; in the series on Myzus persicae (aphids); in series [2]; in series [3]; in series [4]; in series [5]) was 80 to 100% throughout. The mortality at 100 ppm in series [7] and in series [6] was 80 to 100% in each case.

As for `COC(=O)OCc1c(F)c(F)c(COC(=O)[C@@H]2[C@H](/C=C(\Cl)C(F)(F)F)C2(C)C)c(F)c1F` (relative stereo) [Product VII, 4-(Methoxycarbonyloxymethyl)-2,3,5,6-tetrafluorobenzyl (1RS,cis)-3-(Z-2-chloro-3,3,3-trifluoroprop-1-en-1-yl)-2,2-dimethylcyclopropanecarboxylate], the mortality at 100 ppm (in series [1]; in the series with Myzus persicae (aphids); in series [2]; in series [3]; in series [4]; in series [5]) was 80 to 100% in each case. Further, the mortality at 100 ppm in series [7] is 80 to 100%; in series [6] it was under 50%.

Regarding `CC#CCOCc1c(F)c(F)c(COC(=O)[C@@H]2[C@H](/C=C(\Cl)C(F)(F)F)C2(C)C)c(F)c1F` (relative stereo) [Product XIX, 4-[(But-2-yn-1-yl)oxymethyl]-2,3,5,6-tetrafluorobenzyl (1RS,cis)-3-(Z-2-chloro-3,3,3-trifluoroprop-1-en-1-yl)-2,2-dimethylcyclopropanecarboxylate], the mortality at 100 ppm in series [1] lay in the range of 50 to 79%; in the series on Myzus persicae (aphids), 80 to 100%; in series [2], 80 to 100%; in series [3], 80 to 100%; in series [4], 80 to 100%; in series [5], 80 to 100%. Moreover, the figures for the mortality at 100 ppm in series [7] and in series [6] were 80 to 100% and 50 to 79%, respectively.

Consider `C#CCOCc1c(F)c(F)c(COC(=O)[C@@H]2[C@H](/C=C(\Cl)C(F)(F)F)C2(C)C)c(F)c1F` (relative stereo) [Product XX, 4-[(Prop-2-yn-1-yl)oxymethyl]-2,3,5,6-tetrafluorobenzyl (1RS,cis)-3-(Z-2-chloro-3,3,3-trifluoroprop-1-en-1-yl)-2,2-dimethylcyclopropanecarboxylate], for which the mortality at 100 ppm (in series [1]; in the series on Myzus persicae (aphids); in series [2]; in series [3]; in series [4]; in series [5]) was 80 to 100% in each case. Besides, the mortality at 100 ppm in series [7] and in series [6] was 80 to 100% throughout.

As to `C#CC(C)OCc1c(F)c(F)c(COC(=O)C2C(C=C(Cl)C(F)(F)F)C2(C)C)c(F)c1F` (stereo not drawn) [Product XVIII, (Rs)-4-[(l-methylprop-2-yn-1-yl)oxymethyl]-2,3,5,6-tetrafluorobenzyl (1RS,cis)-3-(Z-2-chloro-3,3,3-trifluoroprop-1-en-1-yl)-2,2-dimethylcyclopropanecarboxylate], the mortality at 100 ppm in series [1] was under 50%; with Myzus persicae (aphids), 80 to 100%; in series [2] (setting [8]) it was 80 to 100%; in series [3] (setting [9]), 80 to 100%; in series [4], 80 to 100%; in series [5], 80 to 100%. For the same molecule, the mortality at 100 ppm in series [7] and in series [6] was 80 to 100% in each case.

Values taken from patent EP0302626A2, “Insecticidal compounds” (IMPERIAL CHEMICAL INDUSTRIES PLC, priority 1987, dated 1989).
